# Read-outs that look alike come from different tables or passages of the source.
# Tests used:
# TMD8 = assay: Cell viability assay (CellTiter-Blue), TMD8; type: cell-based, human; details: TMD8 cells; read-out: IC50 (nM), growth of TMD8
# Procedure: (§1) Cells were seeded on 96-well plates (9,000 cells/well), cultured at 37 °C in 5% CO2 overnight, and incubated with different concentrations of compounds for 3 or 7 days. Then the cells were stained with CellTiter-Blue® reagent (Promega) for 4 h at 37 °C. The fluorescence signals were detected with a FlexStation 3, and the IC50 values of each compound were determined with GraFit software (Version 6.0).
# CYP1A2 = CYP1A2 (Homo sapiens, UniProt P05177); type: in vitro ADME
# Source text: (§2) Cancer Biol Med Vol 19, No 7 July 2022 3
# (§3) Table S8 Inhibition of CYP isozymes by SY-1530
# (§4) Table S9 Preclinical safety of SY-1530
# (§5) Group Single-dose toxicity Multiple-dose toxicity
# (§6) Animal Rat Beagle dog Rat Beagle dog
# (§7) (1 picture or pasted object on this page, not shown here)
# CYP2C9 = CYP2C9 (Homo sapiens, UniProt P11712); type: in vitro ADME
# Source text: as §2, §3, §4, §5, §6, §7
# CYP2C8 = CYP2C8 (Homo sapiens, UniProt P10632); type: in vitro ADME
# Source text: as §2, §3, §4, §5, §6, §7
# [1] = monkey
# [2] = rat, in vivo
# JAK3 = JAK3 (Homo sapiens, UniProt P52333); assay: HTRF kinase assay, JAK3
# Procedure: (§8) Homogeneous time-resolved fluorescence (HTRF) assays were performed with a HTRF® KinEASE™-TK kit (Trevigen).
# Pfeiffer = assay: Cell viability assay (CellTiter-Blue), Pfeiffer; type: cell-based, human; details: Pfeiffer cells; read-out: IC50 (nM), growth of Pfeiffer
# Procedure: as §1
# EGFR = EGFR (Homo sapiens, UniProt P00533); assay: HTRF kinase assay, EGFR
# Procedure: as §8
# Beagle dog = details: in vivo
# Source text: as §4, §5, §6
# Rat = details: in vivo
# Source text: as §4, §5, §6
# [3] = rat
# LCK = LCK (Homo sapiens, UniProt P06239); assay: Protein kinase panel at 1 µM, LCK; type: biochemical
# [4] = human
# Caco-2 = details: human
# Source text: protein kinases Beagle dog PK
# Kinase Inhibition (%) Kinase Inhibition (%) IV Oral
# Species Plasma protein binding (%)
# Tcells, and B-cell lymphoma
# Compound Caco-2 permeability assay
# as §7
# BTK [5] = target: T1, BTK (Homo sapiens, UniProt Q06187); assay: HTRF assay of BTK activity; type: biochemical; details: double reciprocal curve
# BTK [6] = target: T1, BTK; assay: Recovery of BTK activity after dilution (HTRF); type: biochemical; details: BTK incubated with inhibitor for 2 h, mixture diluted
# Procedure: In addition, after incubation of BTK with the inhibitors for 4 h, we performed liquid chromatography-tandem mass spectrometry (LC-MS/MS) to detect the abundance of the inhibitors.
# (A) The compounds were incubated with BTK for 2 h, after which HTRF assays were performed with dilution of the mixture. The reactions were stopped at different time points. Data are shown as the mean ± SEM. (B) The content of the compounds was measured with LC-MS/MS after incubation with BTK for 4 h. Data are shown as the mean ± SEM (n = 3). Statistical analysis was performed with Student’s t-test (***P < 0.001). […] Cells were lysed and analyzed by Western blot and fluorescent gel scanning.
# [7] = dog, in vivo
# ITK = ITK (Homo sapiens, UniProt Q08881); assay: HTRF assay of ITK activity
# Procedure: as §8
# CSK = CSK (Homo sapiens, UniProt P41240); assay: Protein kinase panel at 1 µM, CSK; type: biochemical
# [8] = IC50 SY-1530 over IC50 ibrutinib
# EGFR, sequence (P00533 25-1210): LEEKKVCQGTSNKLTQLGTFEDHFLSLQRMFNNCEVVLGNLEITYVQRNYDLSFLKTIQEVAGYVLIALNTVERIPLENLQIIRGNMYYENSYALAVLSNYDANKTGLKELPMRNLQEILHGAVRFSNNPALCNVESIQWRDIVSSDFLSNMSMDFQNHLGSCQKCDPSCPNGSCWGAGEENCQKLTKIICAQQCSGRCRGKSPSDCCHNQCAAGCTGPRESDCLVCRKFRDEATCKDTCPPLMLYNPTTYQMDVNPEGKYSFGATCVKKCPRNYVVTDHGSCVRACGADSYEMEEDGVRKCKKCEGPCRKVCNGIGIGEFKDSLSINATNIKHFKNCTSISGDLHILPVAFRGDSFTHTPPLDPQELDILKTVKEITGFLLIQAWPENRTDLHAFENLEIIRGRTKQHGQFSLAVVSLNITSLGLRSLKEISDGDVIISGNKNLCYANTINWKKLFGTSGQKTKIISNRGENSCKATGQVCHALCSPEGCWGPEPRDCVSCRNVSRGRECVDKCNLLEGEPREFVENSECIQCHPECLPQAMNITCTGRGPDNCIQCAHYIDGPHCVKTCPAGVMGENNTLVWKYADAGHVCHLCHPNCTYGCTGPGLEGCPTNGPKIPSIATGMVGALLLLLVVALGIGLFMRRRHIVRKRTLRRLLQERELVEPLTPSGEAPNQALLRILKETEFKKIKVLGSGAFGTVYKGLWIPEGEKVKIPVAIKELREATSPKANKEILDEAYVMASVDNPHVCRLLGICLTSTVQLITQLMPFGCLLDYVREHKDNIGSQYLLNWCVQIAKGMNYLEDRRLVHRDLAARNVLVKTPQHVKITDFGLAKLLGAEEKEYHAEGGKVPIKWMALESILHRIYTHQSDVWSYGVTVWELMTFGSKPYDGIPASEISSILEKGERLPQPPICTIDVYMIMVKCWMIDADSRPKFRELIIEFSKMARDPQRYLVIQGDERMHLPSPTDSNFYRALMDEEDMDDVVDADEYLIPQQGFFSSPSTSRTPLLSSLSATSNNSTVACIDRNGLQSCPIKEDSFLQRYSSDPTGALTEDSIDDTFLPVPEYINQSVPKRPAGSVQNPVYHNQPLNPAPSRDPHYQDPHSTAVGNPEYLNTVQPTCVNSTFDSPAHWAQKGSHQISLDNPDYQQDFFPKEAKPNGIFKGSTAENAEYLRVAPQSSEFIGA
# ITK, sequence (Q08881 whole entry): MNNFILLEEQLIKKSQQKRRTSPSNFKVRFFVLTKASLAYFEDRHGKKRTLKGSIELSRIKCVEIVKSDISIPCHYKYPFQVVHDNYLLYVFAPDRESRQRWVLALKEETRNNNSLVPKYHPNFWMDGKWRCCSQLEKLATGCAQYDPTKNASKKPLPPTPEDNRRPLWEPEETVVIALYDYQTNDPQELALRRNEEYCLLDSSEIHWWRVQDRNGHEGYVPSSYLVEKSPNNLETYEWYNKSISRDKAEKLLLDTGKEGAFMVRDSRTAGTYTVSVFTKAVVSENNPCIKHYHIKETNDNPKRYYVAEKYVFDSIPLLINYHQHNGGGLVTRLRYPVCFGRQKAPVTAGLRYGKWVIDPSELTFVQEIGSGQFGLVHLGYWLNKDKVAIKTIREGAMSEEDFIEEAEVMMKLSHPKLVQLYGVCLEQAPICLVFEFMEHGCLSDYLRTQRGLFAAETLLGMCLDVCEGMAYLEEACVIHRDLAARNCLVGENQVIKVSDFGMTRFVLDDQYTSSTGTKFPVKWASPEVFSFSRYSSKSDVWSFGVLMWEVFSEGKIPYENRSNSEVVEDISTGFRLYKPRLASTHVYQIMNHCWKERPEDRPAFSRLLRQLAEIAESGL
# JAK3, sequence (P52333 whole entry): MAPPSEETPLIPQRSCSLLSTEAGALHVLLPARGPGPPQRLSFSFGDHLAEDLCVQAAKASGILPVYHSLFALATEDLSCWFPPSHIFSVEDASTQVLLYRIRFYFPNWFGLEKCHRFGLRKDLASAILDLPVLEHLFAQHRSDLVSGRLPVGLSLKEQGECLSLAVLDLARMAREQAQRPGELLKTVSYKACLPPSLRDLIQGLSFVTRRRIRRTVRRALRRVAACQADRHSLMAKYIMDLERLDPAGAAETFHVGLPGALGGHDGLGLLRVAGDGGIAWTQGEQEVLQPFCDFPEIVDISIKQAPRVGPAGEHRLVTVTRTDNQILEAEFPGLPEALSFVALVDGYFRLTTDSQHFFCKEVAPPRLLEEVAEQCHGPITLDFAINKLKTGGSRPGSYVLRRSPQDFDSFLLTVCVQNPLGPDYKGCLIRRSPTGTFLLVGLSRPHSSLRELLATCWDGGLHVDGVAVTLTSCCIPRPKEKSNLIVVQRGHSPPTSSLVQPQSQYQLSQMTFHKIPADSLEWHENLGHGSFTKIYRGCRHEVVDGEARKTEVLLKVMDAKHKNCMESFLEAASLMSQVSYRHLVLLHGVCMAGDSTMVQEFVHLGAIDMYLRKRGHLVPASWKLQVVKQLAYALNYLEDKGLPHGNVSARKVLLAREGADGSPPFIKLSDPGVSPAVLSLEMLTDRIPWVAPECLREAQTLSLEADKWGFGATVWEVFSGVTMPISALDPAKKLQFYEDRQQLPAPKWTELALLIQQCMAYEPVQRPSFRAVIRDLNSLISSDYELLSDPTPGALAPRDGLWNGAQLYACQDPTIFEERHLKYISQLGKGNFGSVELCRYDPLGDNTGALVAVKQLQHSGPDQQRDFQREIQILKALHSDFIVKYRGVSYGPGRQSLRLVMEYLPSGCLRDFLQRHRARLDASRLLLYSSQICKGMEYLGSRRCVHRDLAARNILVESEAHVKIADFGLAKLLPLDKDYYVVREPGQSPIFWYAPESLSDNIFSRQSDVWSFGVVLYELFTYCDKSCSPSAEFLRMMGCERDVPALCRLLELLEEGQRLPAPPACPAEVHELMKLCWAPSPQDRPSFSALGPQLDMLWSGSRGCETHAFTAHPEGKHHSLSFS
# T1 sequence (Q06187 whole entry): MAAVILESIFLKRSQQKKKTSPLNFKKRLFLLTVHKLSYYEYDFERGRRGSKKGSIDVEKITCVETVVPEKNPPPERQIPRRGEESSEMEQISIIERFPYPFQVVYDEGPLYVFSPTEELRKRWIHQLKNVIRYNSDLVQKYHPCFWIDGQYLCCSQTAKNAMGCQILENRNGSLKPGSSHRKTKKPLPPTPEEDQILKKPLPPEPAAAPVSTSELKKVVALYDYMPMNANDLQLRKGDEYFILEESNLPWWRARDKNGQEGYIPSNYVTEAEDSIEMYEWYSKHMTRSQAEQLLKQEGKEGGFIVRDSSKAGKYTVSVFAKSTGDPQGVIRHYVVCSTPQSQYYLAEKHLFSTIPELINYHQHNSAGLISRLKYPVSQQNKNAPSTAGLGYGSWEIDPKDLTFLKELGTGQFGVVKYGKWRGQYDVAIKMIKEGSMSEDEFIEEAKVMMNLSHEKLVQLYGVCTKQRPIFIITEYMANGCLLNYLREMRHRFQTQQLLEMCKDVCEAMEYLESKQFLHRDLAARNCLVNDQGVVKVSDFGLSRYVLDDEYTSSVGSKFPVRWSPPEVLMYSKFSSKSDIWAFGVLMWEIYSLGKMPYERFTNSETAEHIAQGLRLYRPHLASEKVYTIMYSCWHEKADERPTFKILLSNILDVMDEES
# LCK, sequence (P06239 whole entry): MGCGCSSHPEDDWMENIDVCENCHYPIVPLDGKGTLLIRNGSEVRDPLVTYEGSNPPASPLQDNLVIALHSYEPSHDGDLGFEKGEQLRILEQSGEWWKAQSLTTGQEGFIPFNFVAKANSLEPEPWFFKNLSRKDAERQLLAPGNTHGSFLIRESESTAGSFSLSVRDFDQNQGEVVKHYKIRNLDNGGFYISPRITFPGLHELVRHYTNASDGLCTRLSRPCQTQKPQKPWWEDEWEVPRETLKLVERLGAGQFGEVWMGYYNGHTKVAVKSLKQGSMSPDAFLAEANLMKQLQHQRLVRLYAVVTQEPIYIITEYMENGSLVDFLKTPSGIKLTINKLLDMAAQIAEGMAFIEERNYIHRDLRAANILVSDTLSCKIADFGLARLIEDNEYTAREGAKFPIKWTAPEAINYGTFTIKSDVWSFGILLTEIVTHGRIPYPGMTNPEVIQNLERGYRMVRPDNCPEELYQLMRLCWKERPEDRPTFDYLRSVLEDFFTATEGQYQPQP
# CYP2C8, sequence (P10632 whole entry): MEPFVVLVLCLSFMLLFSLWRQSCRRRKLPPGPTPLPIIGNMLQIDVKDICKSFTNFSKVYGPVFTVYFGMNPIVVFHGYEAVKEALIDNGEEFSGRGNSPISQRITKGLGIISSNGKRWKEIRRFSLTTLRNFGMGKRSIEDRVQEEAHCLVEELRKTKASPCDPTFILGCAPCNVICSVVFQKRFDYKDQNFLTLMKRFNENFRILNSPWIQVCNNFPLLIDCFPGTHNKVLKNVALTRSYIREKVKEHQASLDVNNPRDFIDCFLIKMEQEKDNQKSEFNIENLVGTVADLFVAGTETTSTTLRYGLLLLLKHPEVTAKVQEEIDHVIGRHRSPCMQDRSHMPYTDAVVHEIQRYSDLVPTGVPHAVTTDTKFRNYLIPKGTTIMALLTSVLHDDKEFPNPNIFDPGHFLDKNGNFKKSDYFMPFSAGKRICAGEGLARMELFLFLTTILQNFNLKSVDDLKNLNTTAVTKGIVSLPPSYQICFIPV
# CSK, sequence (P41240 whole entry): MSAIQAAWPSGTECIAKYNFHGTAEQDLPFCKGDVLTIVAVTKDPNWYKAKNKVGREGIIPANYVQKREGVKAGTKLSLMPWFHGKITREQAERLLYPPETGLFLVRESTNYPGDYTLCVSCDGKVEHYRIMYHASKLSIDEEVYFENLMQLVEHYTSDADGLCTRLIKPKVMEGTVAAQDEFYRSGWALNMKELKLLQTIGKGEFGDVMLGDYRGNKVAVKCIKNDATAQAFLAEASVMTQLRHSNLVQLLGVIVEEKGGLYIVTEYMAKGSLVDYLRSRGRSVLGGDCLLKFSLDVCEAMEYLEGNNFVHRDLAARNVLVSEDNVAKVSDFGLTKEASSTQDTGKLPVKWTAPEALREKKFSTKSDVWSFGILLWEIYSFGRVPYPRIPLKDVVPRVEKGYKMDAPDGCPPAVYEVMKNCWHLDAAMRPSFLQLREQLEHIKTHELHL
compound,measurement,setting,value
COC/C=C/C(=O)N1CC[C@@H](n2nc(-c3ccc(Oc4ccccc4)cc3)c(C(N)=O)c2N)C1 [SY-1530],IC50,TMD8,15.6 nM
same,IC50,CYP1A2,> 25000 nM
same,IC50,CYP2C9,> 25000 nM
same,IC50,CYP2C8,> 25000 nM
same,Plasma protein binding (%),[1],95.3%
same,AUC0–∞,"[2]; iv, 5 mg/kg",4112 ng·h/mL
same,AUC0–∞,"[2]; po, 30 mg/kg",4460 ng·h/mL
same,Cmax,"[2]; po, 30 mg/kg",658 ng/mL
same,F (%),"[2]; po, 30 mg/kg",18.1%
same,Tmax,"[2]; po, 30 mg/kg",3.33 h
same,t½,"[2]; po, 30 mg/kg",4.79 h
same,AUC0–∞,"[2]; po, 100 mg/kg",6842 ng·h/mL
same,Cmax,"[2]; po, 100 mg/kg",1085 ng/mL
same,F (%),"[2]; po, 100 mg/kg",8.32%
same,Tmax,"[2]; po, 100 mg/kg",1.75 h
same,t½,"[2]; po, 100 mg/kg",3.08 h
same,AUC0–∞,"[2]; po, 300 mg/kg",9257 ng·h/mL
same,Cmax,"[2]; po, 300 mg/kg",1129 ng/mL
same,F (%),"[2]; po, 300 mg/kg",3.75%
same,Tmax,"[2]; po, 300 mg/kg",5.25 h
same,t½,"[2]; po, 300 mg/kg",3.9 h
same,"Ratio, JAK3",JAK3; [8],> 27
same,IC50,"JAK3; read-out: IC50 (nM), JAK3, HTRF",> 10000 nM
same,IC50,Pfeiffer,71.4 nM
same,"Ratio, EGFR",EGFR; [8],225
same,IC50,"EGFR; read-out: IC50 (nM), EGFR, HTRF",360 nM
same,MTD,Beagle dog,1000 mg/kg
same,MTD,Rat,2000 mg/kg
same,Plasma protein binding (%),[3],95.0%
same,"Inhibition (%), LCK",LCK,94%
same,Plasma protein binding (%),[4],95.6%
same,Ratio = Papp BL→AP/Papp AP→BL,"Caco-2; Caco-2, 0.1 μM",2.46
same,Ratio = Papp BL→AP/Papp AP→BL,"Caco-2; Caco-2, 1 μM",2.58
same,Ratio = Papp BL→AP/Papp AP→BL,"Caco-2; Caco-2, 10 μM",2.92
same,Type of inhibition with respect to ATP,BTK [5],non-ATP competitive inhibitor
same,Recovery of BTK activity after dilution,BTK [6],did not recover
same,AUC0–∞,"[7]; iv, 3 mg/kg",5458 ng·h/mL
same,CL,"[7]; iv, 3 mg/kg",9.32 mL/min/kg
same,Vss,"[7]; iv, 3 mg/kg",0.857 L/kg
same,t½,"[7]; iv, 3 mg/kg",1.44 h
same,AUC0–∞,"[7]; po, 10 mg/kg",4411 ng·h/mL
same,Cmax,"[7]; po, 10 mg/kg",1039 ng/mL
same,F (%),"[7]; po, 10 mg/kg",24.2%
same,Tmax,"[7]; po, 10 mg/kg",1.08 h
same,t½,"[7]; po, 10 mg/kg",3.85 h
same,AUC0–∞,"[7]; po, 30 mg/kg",6365 ng·h/mL
same,Cmax,"[7]; po, 30 mg/kg",1572 ng/mL
same,F (%),"[7]; po, 30 mg/kg",11.7%
same,Tmax,"[7]; po, 30 mg/kg",0.917 h
same,t½,"[7]; po, 30 mg/kg",5.33 h
same,AUC0–∞,"[7]; po, 100 mg/kg",9095 ng·h/mL
same,Cmax,"[7]; po, 100 mg/kg",2127 ng/mL
same,F (%),"[7]; po, 100 mg/kg",5.00%
same,Tmax,"[7]; po, 100 mg/kg",1.25 h
same,t½,"[7]; po, 100 mg/kg",5.03 h
same,"Ratio, ITK",ITK; [8],> 13
same,IC50,"ITK; read-out: IC50 toward ITK, HTRF",> 1000 nM
same,"Inhibition (%), CSK",CSK,84%

# — PMC9334755 (Cancer Biology & Medicine, 2021)
